According to the CheMixHub ionic liquid set:
± gives the uncertainty stated by the source.

Assay: xn = mol fraction of the nth substance listed
Conditions: for electrical conductivity: 101 kPa; for viscosity: 100 kPa

CCCCCCCCCCCC[N+](C)(C)Cc1ccccc1.[Cl-] + CC(C)[C@H](NC(=O)CN)C(=O)O + O
electrical conductivity [S/m]
Conditions	293.15 K	298.15 K	303.15 K	308.15 K	313.15 K
x2 = 0.0008945, x1 = 0.0002772	0.0811 ± 0.0051	0.0911 ± 0.0057	0.102 ± 0.0063	0.114 ± 0.007	0.127 ± 0.0077
x2 = 0.0008945, x1 = 0.0002957	0.0841 ± 0.0053	0.0945 ± 0.0059	0.106 ± 0.0065	0.118 ± 0.0073	0.132 ± 0.008
x2 = 0.0008945, x1 = 0.0003197	0.0879 ± 0.0055	0.099 ± 0.0062	0.112 ± 0.0069	0.124 ± 0.0076	0.138 ± 0.0084
x2 = 0.0008946, x1 = 0.0001647	0.0603 ± 0.0038	0.0672 ± 0.0042	0.0747 ± 0.0046	0.0825 ± 0.0051	0.0908 ± 0.0056
x2 = 0.0008946, x1 = 0.0001903	0.066 ± 0.0041	0.0736 ± 0.0046	0.0819 ± 0.0051	0.0907 ± 0.0056	0.1 ± 0.0061
x2 = 0.0008946, x1 = 0.0002151	0.0707 ± 0.0044	0.0791 ± 0.0049	0.0882 ± 0.0055	0.0978 ± 0.006	0.108 ± 0.0066
x2 = 0.0008946, x1 = 0.0002373	0.0746 ± 0.0047	0.0834 ± 0.0052	0.0932 ± 0.0058	0.103 ± 0.0064	0.115 ± 0.007
x2 = 0.0008946, x1 = 0.0002578	0.0779 ± 0.0049	0.0874 ± 0.0054	0.0977 ± 0.006	0.109 ± 0.0067	0.121 ± 0.0074
x2 = 0.0008947, x1 = 7.118e-05	0.0298 ± 0.0019	0.0334 ± 0.0021	0.0372 ± 0.0023	0.041 ± 0.0025	0.0451 ± 0.0028
x2 = 0.0008947, x1 = 9.37e-05	0.0378 ± 0.0024	0.0423 ± 0.0026	0.0471 ± 0.0029	0.052 ± 0.0032	0.0571 ± 0.0035
x2 = 0.0008947, x1 = 0.0001168	0.0458 ± 0.0029	0.0513 ± 0.0032	0.0569 ± 0.0035	0.0627 ± 0.0039	0.0689 ± 0.0043
x2 = 0.0008947, x1 = 0.00014	0.0533 ± 0.0033	0.0596 ± 0.0037	0.0662 ± 0.0041	0.0729 ± 0.0045	0.0801 ± 0.0049
x2 = 0.0008948, x1 = 4.976e-05	0.022 ± 0.0014	0.0246 ± 0.0015	0.0275 ± 0.0017	0.0304 ± 0.0019	0.0335 ± 0.0021
x2 = 0.001798, x1 = 0.0001623	0.0582 ± 0.0036	0.0649 ± 0.004	0.0722 ± 0.0044	0.0797 ± 0.0049	0.0879 ± 0.0054
x2 = 0.001798, x1 = 0.0001897	0.0643 ± 0.004	0.0719 ± 0.0045	0.08 ± 0.0049	0.0885 ± 0.0054	0.098 ± 0.006
x2 = 0.001798, x1 = 0.0002152	0.0693 ± 0.0044	0.0776 ± 0.0048	0.0866 ± 0.0053	0.096 ± 0.0059	0.106 ± 0.0066
x2 = 0.001798, x1 = 0.0002386	0.0736 ± 0.0046	0.0825 ± 0.0051	0.0922 ± 0.0057	0.102 ± 0.0063	0.114 ± 0.007
x2 = 0.001798, x1 = 0.0002594	0.0773 ± 0.0049	0.0868 ± 0.0054	0.097 ± 0.006	0.108 ± 0.0066	0.12 ± 0.0074
x2 = 0.001798, x1 = 0.0002777	0.0804 ± 0.0051	0.0903 ± 0.0056	0.101 ± 0.0062	0.113 ± 0.007	0.126 ± 0.0077
x2 = 0.001798, x1 = 0.0002962	0.0834 ± 0.0052	0.0939 ± 0.0058	0.105 ± 0.0065	0.118 ± 0.0072	0.131 ± 0.0081
x2 = 0.001798, x1 = 0.0003218	0.0878 ± 0.0055	0.099 ± 0.0061	0.112 ± 0.0069	0.124 ± 0.0077	0.139 ± 0.0086
x2 = 0.001799, x1 = 4.099e-05	0.0199 ± 0.0012	0.0223 ± 0.0014	0.0251 ± 0.0016	0.0278 ± 0.0017	0.0307 ± 0.0019
x2 = 0.001799, x1 = 6.551e-05	0.0284 ± 0.0018	0.0319 ± 0.002	0.0356 ± 0.0022	0.0393 ± 0.0024	0.0433 ± 0.0027
x2 = 0.001799, x1 = 8.875e-05	0.0363 ± 0.0023	0.0406 ± 0.0025	0.0453 ± 0.0028	0.0499 ± 0.0031	0.0549 ± 0.0034
x2 = 0.001799, x1 = 0.0001114	0.0437 ± 0.0027	0.0488 ± 0.003	0.0543 ± 0.0034	0.0598 ± 0.0037	0.066 ± 0.0041
x2 = 0.001799, x1 = 0.000136	0.0512 ± 0.0032	0.0571 ± 0.0035	0.0635 ± 0.0039	0.0695 ± 0.0043	0.0771 ± 0.0048

CS(C)=O + CC(N)C(=O)[O-].COCCCCn1cc[n+](C)c1
Conditions	viscosity [mPa·s]
308.15 K, x2 = 0	1.65 ± 0.02

CCCC[N+](CCCC)(CCCC)CCCC.[Cl-] + CCC(=O)O
Conditions	viscosity [mPa·s]
298 K, x1 = 0.5	3300

CCCCCCCCCCCCCC[P+](CCCCCC)(CCCCCC)CCCCCC.[c-]1c[nH]nn1 + CCCCCCCCCCCCCC[P+](CCCCCC)(CCCCCC)CCCCCC.O=S(=O)([N-]S(=O)(=O)C(F)(F)F)C(F)(F)F
Conditions	viscosity [mPa·s]
288.15 K, x2 = 0.7	693 ± 90
293.15 K, x2 = 0.5	502 ± 64
293.15 K, x2 = 0.7	495 ± 63
303.15 K, x2 = 0.401	288 ± 36
303.15 K, x2 = 0.5	270 ± 34
303.15 K, x2 = 0.7	270 ± 34
308.15 K, x2 = 0.203	217 ± 27
308.15 K, x2 = 0.5	204 ± 25
308.15 K, x2 = 0.902	181 ± 22

CCCCC[N+](CCCCC)(CCCCC)CCCCC.O=[N+]([O-])[O-] + CCCCCCCCCCCCOS(=O)(=O)[O-].[Na+] + O
viscosity [mPa·s]
Conditions	x2 = 1.81e-06, x1 = 0.0001802	x2 = 3.62e-06, x1 = 0.0001802	x2 = 5.42e-06, x1 = 0.0001802	x2 = 7.23e-06, x1 = 0.0001802	x2 = 9.04e-06, x1 = 0.0001802	x2 = 1.085e-05, x1 = 0.0001802	x2 = 1.266e-05, x1 = 0.0001802	x2 = 1.447e-05, x1 = 0.0001802	x2 = 1.627e-05, x1 = 0.0001802	x2 = 1.808e-05, x1 = 0.0001802
293.15 K	1.017 ± 0.029	1.018 ± 0.029	1.019 ± 0.029	1.02 ± 0.029	1.02 ± 0.029	1.02 ± 0.029	1.021 ± 0.029	1.021 ± 0.029	1.021 ± 0.029	1.021 ± 0.029
298.15 K	0.903 ± 0.028	0.905 ± 0.028	0.906 ± 0.028	0.907 ± 0.028	0.907 ± 0.028	0.908 ± 0.028	0.908 ± 0.028	0.908 ± 0.028	0.909 ± 0.028	0.909 ± 0.028
303.15 K	0.8 ± 0.028	0.801 ± 0.028	0.801 ± 0.028	0.801 ± 0.028	0.801 ± 0.028	0.802 ± 0.028	0.802 ± 0.028	0.803 ± 0.028	0.803 ± 0.028	0.804 ± 0.028
308.15 K	0.713 ± 0.027	0.713 ± 0.027	0.713 ± 0.027	0.713 ± 0.027	0.714 ± 0.027	0.714 ± 0.027	0.715 ± 0.027	0.716 ± 0.027	0.716 ± 0.027	0.716 ± 0.027
313.15 K	0.647 ± 0.027	0.647 ± 0.027	0.648 ± 0.027	0.648 ± 0.027	0.648 ± 0.027	0.649 ± 0.027	0.649 ± 0.027	0.649 ± 0.027	0.65 ± 0.027	0.65 ± 0.027
318.15 K	0.601 ± 0.027	0.601 ± 0.027	0.601 ± 0.027	0.601 ± 0.027	0.602 ± 0.027	0.602 ± 0.027	0.602 ± 0.027	0.602 ± 0.027	0.603 ± 0.027	0.603 ± 0.027

CCCCC[N+](CCCCC)(CCCCC)CCCCC.O=[N+]([O-])[O-] + CCCCCCCCCCCC[N+](C)(C)C.[Br-] + O
viscosity [mPa·s]
Conditions	x2 = 5.424e-05, x1 = 0.0001802	x2 = 0.0001085, x1 = 0.0001801	x2 = 0.0001627, x1 = 0.0001801	x2 = 0.0002169, x1 = 0.0001801	x2 = 0.0002712, x1 = 0.0001801	x2 = 0.0003254, x1 = 0.0001801	x2 = 0.0003796, x1 = 0.0001801	x2 = 0.0004338, x1 = 0.0001801	x2 = 0.000488, x1 = 0.0001801	x2 = 0.0005422, x1 = 0.0001801
293.15 K	1.045 ± 0.029	1.046 ± 0.029	1.048 ± 0.029	1.049 ± 0.029	1.05 ± 0.029	1.051 ± 0.029	1.052 ± 0.029	1.052 ± 0.029	1.052 ± 0.029	1.052 ± 0.029
298.15 K	0.929 ± 0.029	0.931 ± 0.029	0.932 ± 0.029	0.933 ± 0.029	0.933 ± 0.029	0.934 ± 0.029	0.934 ± 0.029	0.934 ± 0.029	0.935 ± 0.029	0.935 ± 0.029
303.15 K	0.825 ± 0.028	0.825 ± 0.028	0.825 ± 0.028	0.825 ± 0.028	0.826 ± 0.028	0.826 ± 0.028	0.827 ± 0.028	0.827 ± 0.028	0.827 ± 0.028	0.828 ± 0.028
308.15 K	0.735 ± 0.028	0.736 ± 0.028	0.736 ± 0.028	0.736 ± 0.028	0.736 ± 0.028	0.737 ± 0.028	0.737 ± 0.028	0.738 ± 0.028	0.739 ± 0.028	0.739 ± 0.028
313.15 K	0.668 ± 0.028	0.668 ± 0.028	0.669 ± 0.028	0.669 ± 0.028	0.669 ± 0.028	0.67 ± 0.028	0.67 ± 0.028	0.67 ± 0.028	0.671 ± 0.028	0.671 ± 0.028
318.15 K	0.62 ± 0.027	0.621 ± 0.027	0.621 ± 0.027	0.622 ± 0.027	0.622 ± 0.027	0.622 ± 0.027	0.622 ± 0.027	0.622 ± 0.027	0.623 ± 0.027	0.623 ± 0.027
